What was measured:
[1] = test system: control sera (pooled serum of ten healthy LUMC hospital workers; commercial negative donor pooled serum from the Dutch bloodbank); format: binding, human; set-up: Binding of Control serum LUMC to linear peptides / Binding of Control serum Blood-bank to linear peptides / Binding of Control serum LUMC to looped peptides / Binding of Control Serum Blood-Bank to Looped peptides / Binding of Control serum LUMC to linear peptides of the protein M of SARS-CoV Urbani / Binding of Control serum Blood-bank to linear peptides of the protein M of SARS-CoV Urbani / Binding of Control serum LUMC to looped peptides of the protein M of SARS-CoV Urbani / Binding of Control Serum Blood-Bank to Looped peptides of the protein M of SARS-CoV Urbani: unit not given here
[2] = test system: rabbit serum obtained by immunizing a rabbit with the SARS-CoV strain Frankfurt 1; format: binding; set-up: Binding of a rabbit serum to linear peptides / Binding of a rabbit serum to looped peptides / Rabbit serum linear peptides / Rabbit serum looped peptides / Binding of a rabbit serum to linear peptides of protein N of SARS-CoV Urbani (Rabbit serum linear peptides) / Binding of a rabbit serum to looped/cyclic peptides of protein N of SARS-CoV Urbani (Rabbit serum looped peptides): unit not given here
[3] = test system: antibodies in sera from SARS patients (sera 1a, 1b, 2, 6, 37, 62, London, SARS-yellow, SARS-green); format: binding, human; set-up: Binding of serum 6 to linear peptides of protein X1 of SARS-CoV Urbani / Binding of serum 37 to linear peptides of protein X1 of SARS-CoV Urbani / Binding of serum 6 to looped/cyclic peptide (PEPSCAN-ELISA) / Binding of serum 37 to looped/cyclic peptide (PEPSCAN-ELISA) / Binding of serum 37 to looped/cyclic peptides of protein X1 of SARS-CoV Urbani / Binding of serum 6 to linear peptides of protein X2 / Binding of serum 37 to linear peptides of protein X2 / Binding of serum 37 to looped/cyclic peptides of protein X2 of SARS-CoV Urbani / Binding of serum 6 to linear peptides of protein M of SARS-CoV Urbani / Binding of serum 37 to linear peptides of protein M of SARS-CoV Urbani / Binding of serum 6 to looped/cyclic peptides of protein M of SARS-CoV Urbani / Binding of serum 37 to looped/cyclic peptides of protein M of SARS-CoV Urbani / Binding of serum 6 to linear peptides of protein X3 of SARS-CoV Urbani / Binding of serum 37 to linear peptides of protein X3 of SARS-CoV Urbani / Binding of serum 37 to looped/cyclic peptides of protein X3 of SARS-CoV Urbani / Binding of serum 6 to linear peptides of protein X4 of SARS-CoV Urbani / Binding of serum 37 to linear peptides of protein X4 of SARS-CoV Urbani / Binding of serum 37 to looped/cyclic peptides of protein X4 of SARS-CoV Urbani / Binding of serum 6 to linear peptides of protein X5 of SARS-CoV Urbani / Binding of serum 37 to linear peptides of protein X5 of SARS-CoV Urbani / Binding of serum 37 to looped/cyclic peptides of protein X5 of SARS-CoV Urbani / Binding of serum 6 to linear peptides of protein N of SARS-CoV Urbani / Binding of serum 37 to linear peptides of protein N of SARS-CoV Urbani / Binding of serum 6 to linear peptide (PEPSCAN-ELISA) / Binding of serum 1a to looped/cyclic peptides of protein N of SARS-CoV Urbani / Binding of serum 1b to looped/cyclic peptides of protein N of SARS-CoV Urbani / Binding of serum 2 to looped/cyclic peptides of protein N of SARS-CoV Urbani / Binding of serum 6 to looped/cyclic peptides of protein N of SARS-CoV Urbani / Binding of serum 37 to looped/cyclic peptides of protein N of SARS-CoV Urbani / Binding of serum 62 to looped/cyclic peptides of protein N of SARS-CoV Urbani / Binding of serum London to looped/cyclic peptides of protein N of SARS-CoV Urbani / Binding of serum SARS-green to looped/cyclic peptides of protein N of SARS-CoV Urbani: unit not given here

Sequence	Binding of Control Serum Blood-Bank to Looped peptides [1]	Binding of Control serum Blood-bank to linear peptides [1]	Binding of Control serum LUMC to linear peptides [1]	Binding of Control serum LUMC to looped peptides [1]	Binding of serum 1a to linear peptides of protein X1 of SARS-CoV Urbani [3]	Binding of serum 1a to looped/cyclic peptide (PEPSCAN-ELISA) [3]	Binding of serum 1b to linear peptides of protein X1 of SARS-CoV Urbani [3]	Binding of serum 1b to looped/cyclic peptide (PEPSCAN-ELISA) [3]	Binding of serum 2 to linear peptides of protein X1 of SARS-CoV Urbani [3]	Binding of serum 2 to looped/cyclic peptide (PEPSCAN-ELISA) [3]	Binding of serum 6 to linear peptides of protein X1 of SARS-CoV Urbani [3]	Binding of serum 6 to looped/cyclic peptide (PEPSCAN-ELISA) [3]	Binding of serum 37 to linear peptides of protein X1 of SARS-CoV Urbani [3]	Binding of serum 37 to looped/cyclic peptide (PEPSCAN-ELISA) [3]	Binding of serum 62 to linear peptides of protein X1 of SARS-CoV Urbani [3]	Binding of serum 62 to looped/cyclic peptide (PEPSCAN-ELISA) [3]	Binding of serum London to linear peptides of protein X1 of SARS-CoV Urbani [3]	Binding of serum London to looped/cyclic peptide (PEPSCAN-ELISA) [3]	Binding of serum SARS-green to linear peptides of protein X1 of SARS-CoV Urbani [3]	Binding of serum SARS-green to looped/cyclic peptide (PEPSCAN-ELISA) [3]	other results
ALNKRWQLALYKGFQ	0.9	0.6	0.6	0.8	0.7	0.8	0.6	0.6	0.5	0.7	0.5	0.6	0.6	0.6	0.5	0.7	0.2	0.3	0.2	0.4	Recognition of the peptide by the rabbit serum [2]: recognized; Binding of serum SARS-yellow to linear peptides of protein X1 of SARS-CoV Urbani [3]: 0.4; Binding of serum SARS-yellow to looped/cyclic peptide (PEPSCAN-ELISA) [3]: 0.6
GVAFLAVFQSATKII	0.7	0.5	0.7	0.7	0.7	0.6	0.6	0.4	0.8	0.6	0.7	0.5	0.6	0.6	0.6	0.6	0.2	0.4	0.3	0.3	Binding of a rabbit serum to linear peptides [2]: 0.9; Binding of a rabbit serum to looped peptides [2]: 0.6; Binding of serum SARS-yellow to linear peptides of protein X1 of SARS-CoV Urbani [3]: 0.2; Binding of serum SARS-yellow to looped/cyclic peptide (PEPSCAN-ELISA) [3]: 0.3
RFLYIIKLVFLWLLW	–	–	–	–	–	–	–	–	–	–	–	–	–	–	–	–	–	–	–	–	Binding of Control Serum Blood-Bank to Looped peptides of the protein M of SARS-CoV Urbani [1]: 0.7; Binding of Control serum Blood-bank to linear peptides of the protein M of SARS-CoV Urbani [1]: 0.7; Binding of Control serum LUMC to linear peptides of the protein M of SARS-CoV Urbani [1]: 0.8; Binding of Control serum LUMC to looped peptides of the protein M of SARS-CoV Urbani [1]: 0.8; Rabbit serum linear peptides [2]: 0.2; Rabbit serum looped peptides [2]: 0.3; Binding of serum 1a to linear peptides of protein M of SARS-CoV Urbani [3]: 0.7; Binding of serum 1b to linear peptides of protein M of SARS-CoV Urbani [3]: 0.7; Binding of serum 2 to linear peptides of protein M of SARS-CoV Urbani [3]: 0.6; Binding of serum 6 to linear peptides of protein M of SARS-CoV Urbani [3]: 0.8; Binding of serum 37 to linear peptides of protein M of SARS-CoV Urbani [3]: 0.4; Binding of serum 62 to linear peptides of protein M of SARS-CoV Urbani [3]: 0.4; Binding of serum London to linear peptides of protein M of SARS-CoV Urbani [3]: 0.6; Binding of serum SARS-green to linear peptides of protein M of SARS-CoV Urbani [3]: 0.6; Binding of serum SARS-yellow to linear peptides of protein M of SARS-CoV Urbani [3]: 0.3; Recognition of the peptide by sera of SARS-CoV infected individuals, and form (linear, looped/cyclic) in which it is recognized [3]: recognized in looped/cyclic form

Source: patent US20070128217A1 (priority 2003, published 2007)
